Drawing on PMC9326368, “A Novel PARP Inhibitor YHP-836 For the Treatment of BRCA-Deficiency Cancers” (Frontiers in Pharmacology, 2022), this text covers IC50 for one compound.

One assay concerns the target PARP2 (Homo sapiens, UniProt Q9UGN5). Briefly: PARP2 enzymatic assay on histone-coated plate with NAD+, PAR product detection. The format is biochemical.
For a further assay, the target named is PARP1 (Homo sapiens, UniProt P09874). Put plainly: PARP1 enzymatic assay on histone-coated plate with NAD+, PAR product detection. The format is biochemical.

As a reminder, the IC50 is the concentration at which inhibition is half-maximal. A high value points to weaker potency in that assay.

SMILES strings stand for the structures.

Sequence of PARP1 (P09874 2-1014): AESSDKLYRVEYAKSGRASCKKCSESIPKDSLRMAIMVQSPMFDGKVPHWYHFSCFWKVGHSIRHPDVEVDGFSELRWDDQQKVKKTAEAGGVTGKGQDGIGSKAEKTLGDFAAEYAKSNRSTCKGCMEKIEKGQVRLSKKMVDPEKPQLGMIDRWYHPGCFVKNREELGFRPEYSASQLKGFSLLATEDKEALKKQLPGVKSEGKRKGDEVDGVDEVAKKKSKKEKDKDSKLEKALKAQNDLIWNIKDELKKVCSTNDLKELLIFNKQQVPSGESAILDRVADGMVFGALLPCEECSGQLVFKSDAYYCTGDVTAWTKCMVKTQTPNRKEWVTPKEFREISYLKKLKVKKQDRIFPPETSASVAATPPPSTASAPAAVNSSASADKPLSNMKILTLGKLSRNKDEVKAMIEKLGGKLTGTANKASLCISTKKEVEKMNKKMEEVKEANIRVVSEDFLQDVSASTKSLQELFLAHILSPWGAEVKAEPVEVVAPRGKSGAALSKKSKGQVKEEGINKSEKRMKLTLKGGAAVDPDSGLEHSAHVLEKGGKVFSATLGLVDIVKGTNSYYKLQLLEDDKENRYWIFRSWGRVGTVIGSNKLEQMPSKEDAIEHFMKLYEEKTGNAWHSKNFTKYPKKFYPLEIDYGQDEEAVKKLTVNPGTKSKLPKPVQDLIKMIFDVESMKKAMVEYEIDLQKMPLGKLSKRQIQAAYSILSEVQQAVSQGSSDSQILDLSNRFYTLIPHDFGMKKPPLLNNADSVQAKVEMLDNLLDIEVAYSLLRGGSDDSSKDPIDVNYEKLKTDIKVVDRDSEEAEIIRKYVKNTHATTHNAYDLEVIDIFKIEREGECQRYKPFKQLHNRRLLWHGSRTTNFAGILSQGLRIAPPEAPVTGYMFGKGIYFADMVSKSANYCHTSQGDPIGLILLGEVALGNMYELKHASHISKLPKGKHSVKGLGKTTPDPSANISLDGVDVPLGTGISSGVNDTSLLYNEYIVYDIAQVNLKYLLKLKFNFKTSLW
Sequence of PARP2 (Q9UGN5 whole entry): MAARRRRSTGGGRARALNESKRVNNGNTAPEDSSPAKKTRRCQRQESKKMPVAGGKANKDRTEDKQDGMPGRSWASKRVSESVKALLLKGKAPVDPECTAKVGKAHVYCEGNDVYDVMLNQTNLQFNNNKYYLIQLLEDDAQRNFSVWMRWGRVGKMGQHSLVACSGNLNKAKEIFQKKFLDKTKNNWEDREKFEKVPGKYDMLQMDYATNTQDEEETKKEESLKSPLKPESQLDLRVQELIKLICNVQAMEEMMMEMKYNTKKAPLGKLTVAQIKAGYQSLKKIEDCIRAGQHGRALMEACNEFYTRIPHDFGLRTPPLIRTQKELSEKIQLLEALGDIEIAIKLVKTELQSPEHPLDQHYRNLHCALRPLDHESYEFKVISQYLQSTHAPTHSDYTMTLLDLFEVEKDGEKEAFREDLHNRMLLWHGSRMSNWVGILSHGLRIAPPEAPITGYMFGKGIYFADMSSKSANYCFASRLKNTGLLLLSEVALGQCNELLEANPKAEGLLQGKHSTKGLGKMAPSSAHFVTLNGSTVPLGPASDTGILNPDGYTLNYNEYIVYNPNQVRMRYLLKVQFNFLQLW

With `O=C(c1cc(Cn2c(=O)[nH]c(=O)c3ccccc32)ccc1F)N1CCN(CC(F)(F)F)CC1` [YHP-836], the IC50 against PARP2 is 3.62 nM; against PARP1 it was 6.33 nM.
